Test results taken from US7557092B2, “Purinergic modulation of smell” (University of Utah Research Foundation, priority 2002, dated 2009).
“And” between values parts separate entries of the source, which are not always exact repeats. Equal values may be shown once.

What was measured:
[1] = test system: sustentacular cells in mouse olfactory epithelium slices; experiment: confocal calcium imaging of fluo-4 AM loaded olfactory epithelium slices, sustentacular cells; assay type: cell-based; conditions: 10 μM agonist superfused onto slice
Description: (§1) To study the effects of ATP on odor responses, acutely prepared slices of mouse olfactory epithelium were used. Confocal imaging of fluo-4 AM-loaded olfactory epithelium slices allows simultaneous recording from identified structures within the olfactory epithelium, i.e., both ORNs and sustentacular cells. […] The difference in robustness can be due to poor access to the ATP stimulus: odorant receptors are on the cilia of the ORNs, which extend beyond the outer edge of the olfactory epithelium, whereas purinergic receptors are located deeper within the olfactory epithelium. […] The latency of activation for the ATP-evoked calcium transient was shorter in the ORN (FIG. 3B2, solid up arrowhead) than in sustentacular cells (FIG. 3B3, open down arrowhead). Collectively, this was consistent with ORNs expressing the faster P2X receptors, and the sustentacular cells expressing the slower G-protein coupled P2Y receptors.
(§2) To prepare olfactory epithelium slices, neonatal mice (postnatal day 0-6) were quickly decapitated, and the skin and lower jaw were removed. Tissue was mounted in ice cold Ringers onto a vibratome-cutting block and 300 μm slices were made. Primary cultures of mouse ORNs were made using the same protocol and culture conditions as described for rat olfactory receptor neurons (Vargas and Lucero, 1999a). Briefly, tissue was placed in divalent cation-free Ringers containing 10 mg/ml bovine serum albumin, 1 mg/ml deoxyribonuclease II and 44 U/ml dispase, incubated at 37° C. for 45 min. The tissue was washed, triturated, and filtered through a […] mesh and […] cells were plated onto concanavalin A-coated coverslips and allowed to settle for 20 min. An additional 1.5 ml of culture medium was added (DMEM supplemented with […] ascorbic acid, 1X insulin-transferrin-seleniumX (GIBCO BRL), 2 mM glutamine, 100 U/ml penicillin G and […] streptomycin).
(§3) [Ca^2+]i was determined using confocal imaging of fluo-4 AM (18 μM; Molecular Probes) loaded cells and slices. Cells or slices were placed in a laminar flow chamber (Warner Instruments) and perfused continuously with Ringers solution at a flow rate of 1.5-2.0 ml/min. Ringers contained (mM): 140 NaCl, 5 KCl, 1 MgCl2, 2 CaCl2, 10 HEPES, 10 glucose, […] and 400 nM tetrodotoxin. Test solutions were applied using bath exchange and a small volume loop injector (200 μl). A Zeiss LSM 510 confocal laser scanning system was used for data collection and analysis. Time series experiments were performed collecting 1400×700 pixel images at 0.2-0.4 Hz. The fluorometric signals obtained are expressed as relative fluorescence change, ΔF/F═(F−F0)/F0, where F0 is the basal fluorescence level. Increases in F greater than 10% above baseline noise were considered responses.

[2] = test system: cultured mouse ORNs; experiment: confocal calcium imaging of fluo-4 AM loaded cultured ORNs; assay type: cell-based
[3] = test system: odor responses of mouse ORNs in olfactory epithelium slices; experiment: co-application of odor and purinergic receptor agonist, calcium transients in olfactory epithelium slices; assay type: cell-based
[4] = test system: ORNs in mouse olfactory epithelium slices; experiment: confocal calcium imaging of fluo-4 AM loaded olfactory epithelium slices, ORNs; assay type: cell-based; conditions: 10 μM agonist superfused onto slice
Description: as §1, §2, §3

[5] = test system: P2X and P2Y purinergic receptors; conditions: cited from earlier work
[6] = target: P2Y4 (Homo sapiens, UniProt P51582); conditions: cDNA from Human chromosome X; cited from earlier work
Chain of P2Y4 (P51582 whole entry): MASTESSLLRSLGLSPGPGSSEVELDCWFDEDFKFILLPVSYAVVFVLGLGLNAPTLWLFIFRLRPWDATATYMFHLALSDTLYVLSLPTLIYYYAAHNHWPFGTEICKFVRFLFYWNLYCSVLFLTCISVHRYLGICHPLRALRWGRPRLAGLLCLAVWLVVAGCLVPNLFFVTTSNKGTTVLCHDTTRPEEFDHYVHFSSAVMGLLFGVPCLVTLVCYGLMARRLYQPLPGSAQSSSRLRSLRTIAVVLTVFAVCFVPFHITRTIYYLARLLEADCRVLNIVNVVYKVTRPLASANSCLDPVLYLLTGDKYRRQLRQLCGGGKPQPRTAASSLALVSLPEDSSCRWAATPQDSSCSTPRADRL

Nc1ncnc2c1ncn2[C@@H]1O[C@H](COP(=O)(O)OP(=O)(O)OP(=O)(O)O)[C@@H](O)[C@H]1O [ATP, Adenosine 5′-triphosphate]
agonist-evoked calcium transients in sustentacular cells [1]: evoked calcium transients | ATP-induced rise in [Ca2+]i in the absence of external Ca2+, larger than in the presence of Ca2+ ([2]; 10 μM ATP, 0 Ca2+ + EGTA): 31±11% | ΔF/F increase in [Ca2+]i, average ([2]; 10 μM ATP, n=76): 151±12% | ΔF/F increase in [Ca2+]i, range ([2]; 10 μM ATP, n=76): 13-398% | EC50 ([2]; Mus musculus, averaged dose-response, maximum % ΔF/F relative to 10 μM ATP, n=58, read-out: EC50 of ATP-induced [Ca2+]i increases): 1600 nM | ORNs with rapid transient increase in [Ca2+]i ([2]; extracellularly applied ATP): 76/84 | odor-responsive cells with a significant decrease in the summed [Ca2+]i increase ([3]; co-application of 10 μM ATP and odor (10 μM n-amyl acetate+10 μM R-carvone)): 62% | mean suppression of the summed [Ca2+]i increase ([3]; co-application of 10 μM ATP and odor, n=26): 57±5% and 57%±5% | mean enhancement of evoked [Ca2+]i increase ([3]; co-application of 10 μM ATP and odor, the two ORNs with >20% increase): 157±34% | agonist-evoked calcium transients in ORNs [4]: evoked calcium transients from all 11 ORNs | concentrations that activate P2X and P2Y purinergic receptors [5]: 0.1 to 10 µM | Agonist activity [6]: UTP > UDP (ATP inactive)
